One data set deals with TNF-α. Kind of data set: ELISA of TNF-α in LPS-stimulated RAW 264.7 macrophages. Type of data set: cell-based, mouse.
The test system of a further data set is PC3 cells. Kind of data set: Apoptosis detection by annexin V/PI assay. Type of data set: cell-based, Human. Conditions: 25 μM, 6 h. The text has this:
High expression of COX-2 is found in various cancers, however, for PCa cell lines as well as tissue, contradictory results exist. We therefore tested anti-proliferative properties of Platin-A on androgen-responsive LNCaP and androgenunresponsive PC3 and DU145 PCa cells that differ in their malignant potentials. […] However, in LNCaP cells, Platin-A activity was better than an equimolar mixture of cisplatin and aspirin. In general, Pt(IV) compounds are less cytotoxic compared to their active Pt(II) form. […] To evaluate whether Platin-A-dependent inhibition of cancer cell proliferation is associated with apoptosis, Alexa Fluor® 488 annexin V/propidium iodide (PI) staining assay was carried out in PC3 cells and the data were analyzed by fluorescence assisted cell sorting. […]
PC3 cells were seeded at a density of 1×10^6 cells/mL on each well of a six well plate and allowed to grow overnight. […] Cell density was determined and cells were resuspended in 1× annexinVbinding buffer to 1×10^6 cells/mL preparing a sufficient volume to have 100 μL per assay. […] After the incubation period, 400 μL of 1× annexin-binding buffer was added to each sample, samples were gently mixed keeping the samples on ice, and the samples were analyzed on the flow cytometer immediately.

For a further data set, the system named is RAW 264.7 macrophages. Kind of data set: MTT cell viability of LPS activated RAW 264.7 macrophages. Type of data set: cell-based, mouse. Conditions: 10 μM, 24 h. As for the experimental part:
FIG. 16: Cytotoxicity of Platin-A (10 μM), cisplatin (10 μM), aspirin (10 μM), and cisplatin (10 μM)+aspirin (10 μM) on LPS activated RAW 264.7 macrophages with incubation time of 24 h.
The cytotoxic behaviors of cisplatin, aspirin, cisplatin+aspirin, and Platin-A were evaluated using the MTT assay against PC3, DU145, LNCaP, and RAW 264.7 cells. Cells (2000 cells/well for PC3, and DU145 cells; 10000 cells/well for LNCaP and RAW 264.7) were seeded on a 96-well plate in 100 μL of desired medium and incubated for 24 h. The cells were treated with different constructs at varying concentrations and incubated for 72 h at 37° C. except for RAW 264.7 macrophages. An incubation time period of 24 h was used for macrophages. The cells were then treated with 20 μL of MTT (5 mg/mL in PBS) for 5 h. The medium was removed, the cells were lysed with 100 μL of DMSO, and the absorbance of the purple formazan was recorded at 550 nm using a Bio-Tek Synergy HT microplate reader. Each well was performed in triplicate. […] The IC50 values were reported at +95% confidence intervals.

Method for TNF-α: RAW 264.7 cells were plated at a concentration of 10,000 cells/mL in 96 plates and allowed to grow overnight. For preventative anti-inflammatory treatment, Platin-A (10 μM), aspirin (10 μM), cisplatin (10 μM) and an equimolar ratio of cisplatin and aspirin (10 μM each) was incubated with the RAW cells for 6 h. Lipopolysaccharide (LPS) (100 ng/mL) was added and the cells were further incubated for 12 h. For therapeutic anti-inflammatory treatment, LPS (100 ng/mL) was added to the RAW cells and incubated for 6 h. Platin-A (10 μM), aspirin (10 μM), cisplatin (10 μM) and an equimolar ratio of cisplatin and aspirin (10 μM each) was then added to the cells and incubated for 12 h. ELISA was performed on the supernatants against the cytokines interleukin (IL)-6, IL-10, and TNF-α. Briefly, antibody coated plates were blocked with 10% FBS in PBS for 1 h at room temperature followed by 3 washes. RAW cell supernatants were incubated on the plates for 2 h at room temperature. This was immediately followed by washings and sequential incubations with the cytokine-biotin conjugate and streptavidin working solution. Finally, the substrate reagent containing 3,3′,5,5′-tetramethylbenzidine (100 μL) was added to each well, incubated for 15 min, the reaction was stopped by adding 50 μL H2SO4 (0.1 M). The absorbance was recorded at 450 nm using a BioTek Synergy HT well plate reader.

As for `CC(=O)Oc1ccccc1C(=O)[O][Pt]([NH2])([NH2])([OH])([Cl])[Cl]` [Platin-A], the “LPS-induced TNF-α production” value in the data set on TNF-α (preventive: pretreatment 10 μM 6 h, then LPS 12 h) was “significantly inhibited”. The “levels of TNF-α” value with TNF-α (therapeutic: LPS activated macrophages then 10 μM for 12 h) is listed as “significantly reduced”. Also, the “apoptosis induction (annexin V/PI)” value in the data set with PC3 cells is “High level of apoptosis was induced”. Moreover, the cell viability result with RAW 264.7 macrophages is “did not affect cell viability”.

Source of the values: patent US20170190726A9, “PRODRUG FOR RELEASE OF CISPLATIN AND CYCLOOXYGENASE INHIBITOR” (priority 2013, published 2017).
